In patent US7732475B2, “Histone deacetylase inhibitors” (Takeda San Diego, Inc., priority 2005, dated 2010):

Target: HDAC2 (Homo sapiens, UniProt Q92769)
Experiment: HDAC2 fluorescence inhibition assay (tBoc-Lys(Ac)-AMC)

Chain of HDAC2 (Q92769 with tags, fused parts or gaps): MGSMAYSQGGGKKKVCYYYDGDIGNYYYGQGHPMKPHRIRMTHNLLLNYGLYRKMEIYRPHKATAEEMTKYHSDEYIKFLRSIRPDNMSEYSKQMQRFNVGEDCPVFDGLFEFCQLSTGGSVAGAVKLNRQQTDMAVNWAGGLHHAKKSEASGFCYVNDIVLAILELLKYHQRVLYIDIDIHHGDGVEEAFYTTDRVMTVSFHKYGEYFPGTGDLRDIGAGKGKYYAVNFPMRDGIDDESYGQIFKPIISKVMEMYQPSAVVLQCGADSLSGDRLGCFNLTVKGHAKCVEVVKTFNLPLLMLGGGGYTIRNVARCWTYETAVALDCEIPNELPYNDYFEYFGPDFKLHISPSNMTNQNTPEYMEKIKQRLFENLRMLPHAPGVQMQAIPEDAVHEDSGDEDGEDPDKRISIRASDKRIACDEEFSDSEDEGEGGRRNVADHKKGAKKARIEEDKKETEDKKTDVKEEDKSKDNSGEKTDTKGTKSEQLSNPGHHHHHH

Row | SMILES | IC50
1 | Nc1ccccc1NC(=O)c1ccc(Cn2cc3c(n2)CCCC3)cc1 [Example 129, N-(2-aminophenyl)-4-((4,5,6,7-tetrahydro-2H-indazol-2-yl)methyl)benzamide] | 50 to 100 nM
2 | Nc1ccccc1NC(=O)c1ccc(Cn2ncc3c2CCCC3)cc1 [Example 130, N-(2-aminophenyl)-4-((4,5,6,7-tetrahydro-1H-indazol-1-yl)methyl)benzamide] | 100 to 500 nM
3 | Nc1ccccc1NC(=O)c1ccc(CNc2cc[nH]n2)cc1 [Example 131, 4-((1H-pyrazol-3-ylamino)methyl)-N-(2-aminophenyl)benzamide] | ≥ 500 nM
4 | Nc1ccccc1NC(=O)c1ccc(Cn2nccc2N)cc1 [Example 132, 4-((5-amino-1H-pyrazol-1-yl)methyl)-N-(2-aminophenyl)benzamide] | ≥ 500 nM
5 | Nc1ccn(Cc2ccc(C(=O)Nc3ccccc3N)cc2)n1 [Example 133, 4-((3-amino-1H-pyrazol-1-yl)methyl)-N-(2-aminophenyl)benzamide] | 100 to 500 nM
6 | CN(C)C(=O)c1cnn(Cc2ccc(C(=O)Nc3ccccc3N)cc2)c1 [Example 136, 1-(4-(2-aminophenylcarbamoyl)benzyl)-N,N-dimethyl-1H-pyrazole-4-carboxamide] | 100 to 500 nM
7 | CC(C)NC(=O)c1cnn(Cc2ccc(C(=O)Nc3ccccc3N)cc2)c1 [Example 137, 1-(4-(2-aminophenylcarbamoyl)benzyl)-N-isopropyl-1H-pyrazole-4-carboxamide] | ≤ 50 nM
8 | Nc1ccccc1NC(=O)c1ccc(Cn2cc(C(=O)NC3CC3)cn2)cc1 [Example 138, 1-(4-(2-aminophenylcarbamoyl)benzyl)-N-cyclopropyl-1H-pyrazole-4-carboxamide] | 50 to 100 nM
9 | Nc1ccccc1NC(=O)c1ccc(Cn2cc(C(=O)NCC3CC3)cn2)cc1 [Example 139, 1-(4-(2-aminophenylcarbamoyl)benzyl)-N-(cyclopropylmethyl)-1H-pyrazole-4-carboxamide] | 50 to 100 nM
10 | CN(C)CCNC(=O)c1cnn(Cc2ccc(C(=O)Nc3ccccc3N)cc2)c1 [Example 140, 1-(4-(2-aminophenylcarbamoyl)benzyl)-N-(2-(dimethylamino)ethyl)-1H-pyrazole-4-carboxamide] | 50 to 100 nM
11 | NC(=O)c1cnn(Cc2ccc(C(=O)Nc3ccccc3N)cc2)c1 [Example 142, 1-(4-(2-aminophenylcarbamoyl)benzyl)-1H-pyrazole-4-carboxamide] | 50 to 100 nM
12 | CN(C)CCCNC(=O)c1cnn(Cc2ccc(C(=O)Nc3ccccc3N)cc2)c1 [Example 144, 1-(4-(2-aminophenylcarbamoyl)benzyl)-N-(3-(dimethylamino)propyl)-1H-pyrazole-4-carboxamide] | ≤ 50 nM
13 | Nc1ccccc1NC(=O)c1ccc(Cn2cc(C(=O)NCCN3CCOCC3)cn2)cc1 [Example 147, 1-(4-(2-aminophenylcarbamoyl)benzyl)-N-(2-morpholinoethyl)-1H-pyrazole-4-carboxamide] | 50 to 100 nM
14 | Cc1ccnn1Cc1ccc(C(=O)Nc2ccccc2N)cc1 [Example 148, N-(2-aminophenyl)-4-((5-methyl-1H-pyrazol-1-yl)methyl)benzamide] | 100 to 500 nM
15 | COCCCNC(=O)c1cnn(Cc2ccc(C(=O)Nc3ccccc3N)cc2)c1 [Example 152, 1-(4-(2-aminophenylcarbamoyl)benzyl)-N-(3-methoxypropyl)-1H-pyrazole-4-carboxamide] | ≤ 50 nM
16 | Nc1ccccc1NC(=O)c1ccc(Cn2cc(C(=O)NCCCN3CCOCC3)cn2)cc1 [Example 154, 1-(4-(2-aminophenylcarbamoyl)benzyl)-N-(3-morpholinopropyl)-1H-pyrazole-4-carboxamide] | ≤ 50 nM
17 | Nc1ccccc1NC(=O)c1ccc(Cn2cc(C(=O)NCCN3CCCCC3)cn2)cc1 [Example 155, 1-(4-(2-aminophenylcarbamoyl)benzyl)-N-(2-(piperidin-1-yl)ethyl)-1H-pyrazole-4-carboxamide] | ≤ 50 nM
18 | CN1CCN(CCCNC(=O)c2cnn(Cc3ccc(C(=O)Nc4ccccc4N)cc3)c2)CC1 [Example 156, 1-(4-(2-aminophenylcarbamoyl)benzyl)-N-(3-(4-methylpiperazin-1-yl)propyl)-1H-pyrazole-4-carboxamide] | 50 to 100 nM
19 | Nc1ccccc1NC(=O)c1ccc(Cn2ccc3cccnc32)cc1 [Example 157, 4-((1H-Pyrrolo[2,3-b]pyridin-1-yl)methyl)-N-(2-aminophenyl)benzamide] | 100 to 500 nM
20 | Nc1ccccc1NC(=O)c1ccc(Cc2c[nH]c3ccccc23)cc1 [Example 158, 4-((1H-Indol-3-yl)methyl)-N-(2-aminophenyl)benzamide] | 50 to 100 nM

Continued, values first:

Row | IC50 | SMILES
21 | ≤ 50 nM | Nc1ccccc1NC(=O)c1ccc(Cn2cc(C(=O)Nc3ccccc3)cn2)cc1 [Example 127, 1-(4-(2-aminophenylcarbamoyl)benzyl)-N-phenyl-1H-pyrazole-4-carboxamide]
22 | ≤ 50 nM | Nc1ccccc1NC(=O)c1ccc(Cn2cc(C(=O)NCc3ccccc3)cn2)cc1 [Example 128, 1-(4-(2-aminophenylcarbamoyl)benzyl)-N-benzyl-1H-pyrazole-4-carboxamide]
23 | 50 to 100 nM | CNC(=O)c1cnn(Cc2ccc(C(=O)Nc3ccccc3N)cc2)c1 [Example 134, 1-(4-(2-aminophenylcarbamoyl)benzyl)-N-methyl-1H-pyrazole-4-carboxamide]
24 | 50 to 100 nM | CCNC(=O)c1cnn(Cc2ccc(C(=O)Nc3ccccc3N)cc2)c1 [Example 135, 1-(4-(2-aminophenylcarbamoyl)benzyl)-N-ethyl-1H-pyrazole-4-carboxamide]
25 | 50 to 100 nM | Nc1ccccc1NC(=O)c1ccc(Cn2cc(C(=O)NCCO)cn2)cc1 [Example 143, 1-(4-(2-aminophenylcarbamoyl)benzyl)-N-(2-hydroxyethyl)-1H-pyrazole-4-carboxamide]
26 | ≤ 50 nM | Nc1ccccc1NC(=O)c1ccc(Cn2cc(C(=O)NCc3cccnc3)cn2)cc1 [Example 145, 1-(4-(2-aminophenylcarbamoyl)benzyl)-N-(pyridin-3-ylmethyl)-1H-pyrazole-4-carboxamide]
27 | ≤ 50 nM | Nc1ccccc1NC(=O)c1ccc(Cn2cc(C(=O)NCc3ccncc3)cn2)cc1 [Example 146, 1-(4-(2-aminophenylcarbamoyl)benzyl)-N-(pyridin-4-ylmethyl)-1H-pyrazole-4-carboxamide]
28 | ≤ 50 nM | CCCNC(=O)c1cnn(Cc2ccc(C(=O)Nc3ccccc3N)cc2)c1 [Example 149, 1-(4-(2-aminophenylcarbamoyl)benzyl)-N-propyl-1H-pyrazole-4-carboxamide]
29 | ≤ 50 nM | CC(C)CNC(=O)c1cnn(Cc2ccc(C(=O)Nc3ccccc3N)cc2)c1 [Example 150, 1-(4-(2-aminophenylcarbamoyl)benzyl)-N-isobutyl-1H-pyrazole-4-carboxamide]
30 | 50 to 100 nM | COCCNC(=O)c1cnn(Cc2ccc(C(=O)Nc3ccccc3N)cc2)c1 [Example 151, 1-(4-(2-aminophenylcarbamoyl)benzyl)-N-(2-methoxyethyl)-1H-pyrazole-4-carboxamide]
31 | ≤ 50 nM | Nc1ccccc1NC(=O)c1ccc(Cn2cc(C(=O)NCCCO)cn2)cc1 [Example 153, 1-(4-(2-aminophenylcarbamoyl)benzyl)-N-(3-hydroxypropyl)-1H-pyrazole-4-carboxamide]
